# Literature values, collected in patent US12564599B2, “Pharmaceutical composition comprising tetrahydrocannabivarin for the prevention and treatment of overweight” (CepVentures International Corporation, priority 2019, dated 2026).
# Conditions: over a 6 month or a 1 year period
compound,measurement,value
CC(C)CC(N(C)C)C1(c2ccc(Cl)cc2)CCC1 (stereo not shown) [Sibutramine],reduces body weight,about 10%
